Read-outs that look alike come from different tables or passages of the source.
Key:
PpArsN1 = PpArsN1 (Pseudomonas putida, UniProt Q88LK7); settings: for PpArsN1 Specific activity: Substrate 50 μM, 37° C.
P. putida Aars1,2 = experiment: microbe, parasite or virus in culture; format: cell-based, Pseudomonas putida; settings: for IC50: read-out: concentration giving 50% inhibition
[1] = target: phosphinothricin N-acetyltransferase (SvPAT) (Streptomyces viridochromogenes, UniProt Q57146); experiment: N-acetyltransferase assay (DTNB) with SvPAT; format: biochemical, Streptomyces viridochromeogenes; settings: as substrate of PAT (SvPAT)
Sequence of phosphinothricin N-acetyltransferase (SvPAT) (Q57146 whole entry, looked up): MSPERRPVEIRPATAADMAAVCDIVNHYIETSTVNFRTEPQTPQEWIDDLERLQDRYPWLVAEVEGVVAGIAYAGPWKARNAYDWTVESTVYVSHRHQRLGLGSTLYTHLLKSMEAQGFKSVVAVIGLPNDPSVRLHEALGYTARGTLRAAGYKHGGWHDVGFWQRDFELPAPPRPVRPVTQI

E. coli AW3110 = experiment: microbe, parasite or virus in culture; format: cell-based, Escherichia coli; settings: for IC50: read-out: concentration giving 50% inhibition
[2] = target: glutamine synthetase (GS) from E. coli (Escherichia coli, UniProt P0A9C5); experiment: biochemical
Sequence of glutamine synthetase (GS) from E. coli (P0A9C5 2-469): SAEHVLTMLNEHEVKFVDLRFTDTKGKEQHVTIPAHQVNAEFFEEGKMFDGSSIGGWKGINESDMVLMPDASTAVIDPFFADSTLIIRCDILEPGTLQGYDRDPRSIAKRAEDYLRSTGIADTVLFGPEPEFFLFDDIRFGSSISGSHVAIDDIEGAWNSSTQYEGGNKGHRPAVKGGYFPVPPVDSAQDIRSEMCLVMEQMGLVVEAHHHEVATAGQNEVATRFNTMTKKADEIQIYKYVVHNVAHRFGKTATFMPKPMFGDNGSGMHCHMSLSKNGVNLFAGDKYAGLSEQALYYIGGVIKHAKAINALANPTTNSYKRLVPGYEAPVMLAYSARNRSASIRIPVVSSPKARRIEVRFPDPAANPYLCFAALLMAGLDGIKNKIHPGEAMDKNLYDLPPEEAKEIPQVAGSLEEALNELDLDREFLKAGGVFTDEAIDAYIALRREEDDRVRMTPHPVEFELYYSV

Mycobacterium bovis BCG = format: cell-based

Sequence of PpArsN1 (Q88LK7 1-186): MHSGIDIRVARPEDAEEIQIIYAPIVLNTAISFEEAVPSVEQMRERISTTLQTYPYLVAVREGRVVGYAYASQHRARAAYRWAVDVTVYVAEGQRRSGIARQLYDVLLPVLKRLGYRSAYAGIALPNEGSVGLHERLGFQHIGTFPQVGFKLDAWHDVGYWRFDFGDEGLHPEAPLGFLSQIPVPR

## CP(=O)(O)CCC(N)C(=O)O (racemic) [PT, phosphinothricin, reference compound]
PpArsN1
  PpArsN1 Specific activity: 13.9 ± 1.9 nmol/s/mg
P. putida Aars1,2; Pseudomonas putida, 24 h
  IC50: 100 µM
[1]
  Kcat: 3.1 ± 0.0 s⁻¹
E. coli AW3110; Escherichia coli, AW3110, 24 h
  IC50: 100 µM
[2]
  Ki: 400 ± 150 nM

## C[As](=O)(O)CC[C@H](N)C(=O)O [AST, 2-amino-4-(hydroxymethylarsinoyl) butanoate]
PpArsN1
  affinity of PpArsN1 compared with PT: 100 fold
  PpArsN1 Specific activity: 49.6 ± 0.8 nmol/s/mg
PpArsN1; as substrate of PpArsN1
  Kcat: 1.7 ± 0.2 s⁻¹
  Km: 11 ± 3 µM
P. putida Aars1,2
  concentration giving nearly complete inhibition: 20 µM
  effectiveness as an antibiotic compared with PT: approximately 30 fold
  IC50: ~3 µM
[1]
  Kcat: 2.3 ± 0.1 s⁻¹
  Km: 12 ± 2 µM
THP-1 cells
  cytotoxicity in human monocytes: benign and much less toxic compared to inorganic arsenite
Mycobacterium bovis BCG
  inhibitory effect on mycobacterial growth: comparable with MSO and much higher than PT
E. coli AW3110
  concentration giving nearly complete inhibition: 20 µM
  effectiveness as an antibiotic compared with PT: approximately 30 fold
  toxicity (growth inhibition) compared with As(III) and MAs(III): considerably more inhibitory than inorganic As (III) and is similar to that of highly toxic trivalent methylarsenite (MAs(III))
  IC50: ~3 µM

## methionine sulfoximine [MSO, reference compound]
PpArsN1
  substrate quality for PpArsN1: poor substrate
  PpArsN1 Specific activity: 2.1 ± 0.1 nmol/s/mg

Source: patent US12414932B2, “Arsinothricin and methods of treating infections using arsinothricin” (priority 2018, dated 2025)
